The structures appear in SMILES notation. Counter-ions that a name gives are not always drawn. Like-named read-outs stand apart in the source and are kept apart here.

Broadly, the IC50 is the concentration that gives 50% inhibition.

One assay relates to A549 cells. Briefly: Cell-based assay: anti-proliferative activity, Cell Counting Kit-8, 72 hours (A549). The settings on record: 72 hours. Summed up:
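Cell Counting Kit-8 read-out of A549 growth after 72 hours of inhibitor exposure, cells plated in 96-well format. Values reported as IC50.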
On the technique in general: Tetrazolium assays rely on reduction of a dye to a coloured formazan, in cell work by metabolically active cells.

The target in a further assay is MELK (Homo sapiens, UniProt Q14680). Put plainly: Kinase assay: MELK activity, phosphorylation of FITC-labeled histone H3 peptide measured by IMAP fluorescence polarization. It counts as biochemical. As to conditions: read-out: IC50 (μM) (kinase assay). Summed up:
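Substrate is FITC-labeled histone H3 peptide. Compounds come from a 12.5 mM DMSO stock, diluted so assay DMSO is 1%. The stop step adds threefold-volume progressive binding solution, followed by 0.5 h at room temperature and an FP read.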
In general terms: In fluorescence polarisation assays a small probe gives low polarisation when free and higher when bound to something large.

Another assay deals with HT-1197 cells. Briefly: Cell-based assay: anti-proliferative activity, Cell Counting Kit-8, 72 hours (HT-1197, negative control without MELK expression). As to conditions: 72 hours. Summed up:
(§1)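 IC50 values come from CCK-8 growth measurements taken 72 hours post-treatment of plated cells with test compounds. Expression of MELK across the panel was assessed through immunoblot of unfractionated lysates.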

Assay [1] relates to 22Rv1 cells. Put plainly: Cell-based assay: anti-proliferative activity, Cell Counting Kit-8, 72 hours (22Rv1). As to conditions: Homo sapiens.
For another assay, the system named is T47D cells. Put plainly: Cell-based assay: anti-proliferative activity, Cell Counting Kit-8, 72 hours (T47D). The method in brief: as §1
Assay [2] relates to DU4475 cells. Put plainly: Cell-based assay: anti-proliferative activity, Cell Counting Kit-8, 72 hours (DU4475).
In assay [3] the test system is DU4475 cells. The description is as above. This is another data set of the same source.
Assay [4] relates to 22Rv1 cells. Put plainly: Cell-based assay: anti-proliferative activity, Cell Counting Kit-8, 72 hours (22Rv1). The settings on record: Homo sapiens. This is another data set of the same source.
Another assay relates to 22Rv1. Described as above. As to conditions: Homo sapiens; 22Rv1 cells. As for the experimental part: Active candidate inhibitors against MELK were evaluated for their target-specific cytotoxicity using T47D, A549, BT-549, and HT-1197 cells was used for negative control. 100 micro-L of cell suspension was seeded onto 96-well microtiter plate (ViewPlate-96FTC, PerkinElmer). The initial cell concentration of T47D, A549, BT-549, and HT-1197 were 3,000 cells/well, 2,000 cells/well and 2,500 cells/well, respectively. Cellular growth was determined using Cell Counting Kit-8 (DOJINDO) at 72 hours after the exposure of the candidate inhibitors. […] Accurate IC50 values were calculated as described previously.

The test system of the next assay is DU4475. Briefly: Cell-based assay: anti-proliferative activity, Cell Counting Kit-8, 72 hours (DU4475). The settings on record: Homo sapiens, DU-4475, DU4475 cells.
Setting [5] is: Homo sapiens, HT1197, 72 h, HT1197 cells (negative control).
The mark [6] stands for this setting: HT1197 cells (negative control), hydrochloride.
Setting [7] is: HT1197 cells (negative control, no MELK expression), hydrochloride.
Where [8] appears, read: Homo sapiens, HT1197, 72 h, HT1197 cells (negative control, no MELK expression).

Chain of MELK (Q14680 whole entry, looked up): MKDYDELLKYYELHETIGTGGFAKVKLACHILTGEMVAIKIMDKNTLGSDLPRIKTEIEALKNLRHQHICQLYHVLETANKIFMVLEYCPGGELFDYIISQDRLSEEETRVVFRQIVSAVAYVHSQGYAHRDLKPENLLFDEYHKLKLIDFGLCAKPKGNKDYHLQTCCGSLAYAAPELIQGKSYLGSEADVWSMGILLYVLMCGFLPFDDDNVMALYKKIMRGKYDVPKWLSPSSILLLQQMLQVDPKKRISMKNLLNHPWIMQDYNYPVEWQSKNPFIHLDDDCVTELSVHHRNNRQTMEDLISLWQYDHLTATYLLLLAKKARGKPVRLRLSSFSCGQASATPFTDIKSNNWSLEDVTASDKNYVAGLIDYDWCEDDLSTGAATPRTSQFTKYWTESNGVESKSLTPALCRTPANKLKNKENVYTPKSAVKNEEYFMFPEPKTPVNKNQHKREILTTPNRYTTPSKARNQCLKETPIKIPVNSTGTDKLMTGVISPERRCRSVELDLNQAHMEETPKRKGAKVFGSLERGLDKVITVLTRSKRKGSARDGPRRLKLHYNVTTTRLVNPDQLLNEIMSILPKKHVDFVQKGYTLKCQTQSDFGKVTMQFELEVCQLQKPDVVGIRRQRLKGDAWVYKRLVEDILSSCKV

Regarding `CC(C)(N)c1ccc(Nc2c(C(=O)C3CC3)cnc3ccc(-c4cc(F)c(O)c(Cl)c4)cc23)cc1` [Example 604, {4-[4-(2-Aminopropan-2-yl)phenylamino]-6-(3-chloro-5-fluoro-4-hydroxyphenyl)quinolin-3-yl}(cyclopropyl)methanone], the IC50 came out at 0.097 µM in the assay on A549 cells (Homo sapiens, A549, 72 h); 0.0028 µM on MELK; 0.79 µM in the assay on HT-1197 cells (setting [5]); 0.087 µM in the assay on 22Rv1 cells [1]; 0.094 µM with T47D cells (Homo sapiens, T47D, 72 h); 0.039 µM in the assay with DU4475 cells [2] (Homo sapiens, DU-4475, 72 h).

`CCC(=O)c1cnc2ccc(-c3cc(Cl)c(O)c(Cl)c3)cc2c1N[C@H]1CC[C@H](CN(C)C)CC1` [Example 716, 1-(6-(3,5-dichloro-4-hydroxyphenyl)-4-((trans-4-((dimethylamino)methyl)cyclohexyl)amino)quinolin-3-yl)propan-1-one dihydrochloride]: the IC50 in the assay with A549 cells (dihydrochloride) amounted to 0.12 µM; on MELK (dihydrochloride), 0.0016 µM; with HT-1197 cells (HT1197 cells (negative control, no MELK expression), dihydrochloride), 0.82 µM; with DU4475 cells [3] (dihydrochloride), 0.055 µM; in the assay with 22Rv1 cells [4], 0.14 µM; with T47D cells (72 hours, dihydrochloride) it was 0.14 µM.

For `CC(=O)c1cnc2ccc(-c3cc(F)c(O)c(Cl)c3)cc2c1Nc1ccc(N2CCCC(N)C2)nc1` (stereo not drawn) [Example 733, 1-(4-(6-(3-aminopiperidin-1-yl)pyridin-3-ylamino)-6-(3-chloro-5-fluoro-4-hydroxyphenyl)quinolin-3-yl)ethanone], the IC50 in the assay on A549 cells is 0.0086 µM; on MELK, 0.00099 µM; with HT-1197 cells (HT1197 cells (negative control, no MELK expression)), 0.064 µM; in the assay on DU4475 cells [3], 0.01 µM; with 22Rv1 cells [4], 0.0064 µM; in the assay on T47D cells (72 hours), 0.0035 µM.

For `CN(C)CCc1ccc(Nc2c(C(=O)C3CC3)cnc3ccc(-c4cc(Cl)c(O)c(Cl)c4)cc23)cc1` [Example 614, cyclopropyl(6-(3,5-dichloro-4-hydroxyphenyl)-4-(4-(2-(dimethylamino)ethyl)phenylamino)quinolin-3-yl)methanone hydrochloride], the IC50 on MELK (hydrochloride) is 0.0016 µM; with HT-1197 cells (setting [6]), 1.6 µM; in the assay on 22Rv1 cells [1], 0.12 µM; in the assay with T47D cells (72 hours, hydrochloride) it was 0.12 µM; with DU4475 cells [2] (hydrochloride), 0.024 µM.

As to `CN[C@H]1CC[C@H](Nc2c(C(C)=O)cnc3ccc(-c4cc(Cl)c(O)c(OC)c4)cc23)CC1` [Example 543, 1-(6-(3-chloro-4-hydroxy-5-methoxyphenyl)-4-(1R,4R)-4-(methylamino)cyclohexylamino)quinolin-3-yl)ethanone dihydrochloride], the IC50 with A549 cells (dihydrochloride) was determined as 0.076 µM; on MELK (dihydrochloride), 0.0018 µM; in the assay with HT-1197 cells (HT1197 cells (negative control), dihydrochloride), 1.1 µM; in the assay with 22Rv1 cells [1], 0.14 µM; with T47D cells (72 hours, dihydrochloride) it was 0.047 µM; with DU4475 cells [2] (dihydrochloride) it was 0.051 µM.

On to `N[C@H]1CCCN(c2ccc(Nc3c(C(=O)C4CC4)cnc4ccc(-c5cc(Cl)c(O)c(Cl)c5)cc34)cn2)C1` [Example 647, (S)-(4-(6-(3-aminopiperidin-1-yl)pyridin-3-ylamino)-6-(3,5-dichloro-4-hydroxyphenyl)quinolin-3-yl)(cyclopropyl)methanone hydrochloride], for which the IC50 with A549 cells (hydrochloride) was 0.08 µM; on MELK (hydrochloride), 0.0015 µM; in the assay on HT-1197 cells (setting [7]) it was 0.75 µM; with DU4475 cells [3] (hydrochloride), 0.015 µM; with 22Rv1 cells [4], 0.03 µM; in the assay on T47D cells (72 hours, hydrochloride), 0.03 µM.

Consider `CN1CCN(C[C@H]2CC[C@H](Nc3c(C(=O)C4CC4)cnc4ccc(-c5cc(Cl)c(O)c(Cl)c5)cc34)CC2)CC1` [Example 619, cyclopropyl(6-(3,5-dichloro-4-hydroxyphenyl)-4-(1R,4R)-4-((4-methylpiperazin-1-yl)methyl)cyclohexylamino)quinolin-3-yl)methanone hydrochloride], for which the IC50 was found to be 0.28 µM with A549 cells (hydrochloride); 2.6 µM with HT-1197 cells (setting [6]); 0.51 µM in the assay with 22Rv1 cells [1]; 0.32 µM with T47D cells (72 hours, hydrochloride); 0.15 µM in the assay with DU4475 cells [2] (hydrochloride).

As to `O=C(c1cnc2ccc(-c3cc(F)c(O)c(Cl)c3)cc2c1N[C@H]1CC[C@H](CN2CCCC2)CC1)C1CC1` [Example 588, (6-(3-chloro-5-fluoro-4-hydroxyphenyl)-4-(1R,4R)-4-(pyrrolidin-1-ylmethyl)cyclohexylamino)quinolin-3-yl)(cyclopropyl)methanone hydrochloride], the IC50 is 0.096 µM in the assay with A549 cells (hydrochloride); 0.0037 µM at MELK (hydrochloride); 0.46 µM in the assay with HT-1197 cells (setting [6]); 0.16 µM with 22Rv1 cells [1]; 0.091 µM with T47D cells (72 hours, hydrochloride); 0.063 µM in the assay with DU4475 cells [2] (hydrochloride).

For the molecule `O=C(c1cnc2ccc(-c3cc(Cl)c(O)c(Cl)c3)cc2c1N[C@H]1CC[C@H](CN2CCCC2)CC1)C1CC1` [Example 585, cyclopropyl(6-(3,5-dichloro-4-hydroxyphenyl)-4-(1R,4R)-4-(pyrrolidin-1-ylmethyl)cyclohexylamino)quinolin-3-yl)methanone hydrochloride], the IC50 worked out at 0.073 µM with A549 cells (hydrochloride); 0.78 µM in the assay on HT-1197 cells (setting [6]); 0.1 µM with 22Rv1 cells [1]; 0.12 µM with T47D cells (72 hours, hydrochloride); 0.043 µM in the assay with DU4475 cells [2] (hydrochloride).

For the molecule `CC(=O)c1cnc2ccc(-c3cc(Cl)c(O)c(Cl)c3)cc2c1Nc1ccc(CN2CCN(C)CC2)cc1` [Example 655, 1-(6-(3,5-dichloro-4-hydroxyphenyl)-4-(4-((4-methylpiperazin-1-yl)methyl)phenylamino)quinolin-3-yl)ethanone hydrochloride], the IC50 was 0.23 µM with A549 cells (hydrochloride); 0.0029 µM at MELK (hydrochloride); 7.8 µM in the assay on HT-1197 cells (setting [7]); 0.097 µM in the assay on DU4475 cells [3] (hydrochloride); 0.18 µM with 22Rv1 cells [4]; 0.072 µM in the assay with T47D cells (72 hours, hydrochloride).

On to `CC(C)(N)c1ccc(Nc2c(C(=O)C3CC3)cnc3ccc(-c4cc(Cl)c(O)c(Cl)c4)cc23)cc1` [Example 602, {4-[4-(2-Aminopropan-2-yl)phenylamino]-6-(3,5-dichloro-4-hydroxyphenyl)quinolin-3-yl}(cyclopropyl)methanone], for which the IC50 in the assay with A549 cells was 0.074 µM; at MELK it was 0.0011 µM; in the assay on HT-1197 cells (HT1197 cells (negative control)), 0.73 µM; with 22Rv1 cells [1], 0.082 µM; with T47D cells (72 hours) it was 0.13 µM; in the assay with DU4475 cells [2], 0.038 µM.

For the molecule `CN[C@H]1CC[C@H](Nc2c(C(=O)C3CC3)cnc3ccc(-c4cc(Cl)c(O)c(OC)c4)cc23)CC1` [Example 517, {6-(3-Chloro-4-hydroxy-5-methoxyphenyl)-4-[trans-4-(methylamino)cyclohexylamino]quinolin-3-yl}(cyclopropyl)methanone], the IC50 with A549 cells (Homo sapiens, A549, 72 h) is 0.072 µM; at MELK, 0.0014 µM; with HT-1197 cells (setting [5]), 0.38 µM; in the assay with 22Rv1 cells [1], 0.18 µM; in the assay with T47D cells (Homo sapiens, T47D, 72 h), 0.067 µM; with DU4475 cells [2] (Homo sapiens, DU-4475, 72 h), 0.048 µM.

With `CN(C)C1CCN(Cc2ccc(Nc3c(C(=O)C4CC4)cnc4ccc(-c5cc(Cl)c(O)c(Cl)c5)cc34)cc2)C1` (stereo not drawn) [Example 695, cyclopropyl(6-(3,5-dichloro-4-hydroxyphenyl)-4-(4-((3-(dimethylamino)pyrrolidin-1-yl)methyl)phenylamino)quinolin-3-yl)methanone hydrochloride], the IC50 in the assay on A549 cells (hydrochloride) was determined as 0.13 µM; with HT-1197 cells (setting [8]), 5.8 µM; in the assay with DU4475 cells [3] (hydrochloride) it was 0.1 µM; in the assay with 22Rv1 cells [4], 0.23 µM; with T47D cells (72 hours, hydrochloride) it was 0.26 µM.

Turning to `CC(=O)c1cnc2ccc(-c3cc(Cl)c(O)c(Cl)c3)cc2c1N[C@H]1CC[C@H](CCN(C)C)CC1` [Example 740, 1-(6-(3,5-dichloro-4-hydroxyphenyl)-4-(trans-4-(2-(dimethylamino)ethyl)cyclohexylamino)quinolin-3-yl)ethanone hydrochloride], the IC50 was found to be 3.5 µM in the assay with HT-1197 cells (setting [7]); 0.087 µM in the assay with DU4475 cells [3] (hydrochloride); 0.17 µM in the assay with 22Rv1 cells [4]; 0.099 µM with T47D cells (72 hours, hydrochloride).

For the molecule `O=C(c1cnc2ccc(-c3cc(F)c(O)c(Cl)c3)cc2c1Nc1ccc(N2CCNCC2)nc1)C1CC1` [Example 425, (6-(3-chloro-5-fluoro-4-hydroxyphenyl)-4-(6-(piperazin-1-yl)pyridin-3-ylamino)quinolin-3-yl)(cyclopropyl)methanone], the IC50 was determined as 0.16 µM with A549 cells (Homo sapiens, A549, 72 h); 0.0027 µM at MELK (50 micro-M ATP, FITC-labeled histone H3 peptide substrate, IMAP fluorescence polarization); 0.082 µM with 22Rv1; 1.4 µM with HT-1197 cells (setting [8]); 0.044 µM in the assay with DU4475; 0.042 µM in the assay with T47D cells (Homo sapiens, T47D, 72 h).

These data come from patent publication US9120749B2, “Quinoline derivatives and MELK inhibitors containing the same” (ONCOTHERAPY SCIENCE, INC., priority 2010, dated 2015).
